Like-named read-outs stand apart in the source and are kept apart here.
Columns and labels:
[1] = test system: HCV genotype 1b (Con1) replicon in HUH-7 cells; test: HCV replicon luciferase reporter assay, genotype 1b; assay type: cell-based; settings: Hepatitis C virus, Huh-7, 72 h, 3 days incubation
How it was run: (§1)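 Replicon inhibition for both genotypes was measured as Renilla luciferase signal (EnduRen, 7.5 μM final, 2 h) after 3-day, 37° C exposure of replicon-bearing HUH-7 cells in 4% FCS DMEM, 0.5% DMSO. The 1b construct carries S1179I; the 1a H77 construct carries P1496L and S2204I. Twenty-point, 3-fold dilutions were fitted four-parametrically for EC50, and CC50 was taken from multiplexed Cell Titer-Blue.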

[2] = test system: HCV genotype 1a (H77 strain) replicon in HUH-7 cells; test: HCV replicon luciferase reporter assay, genotype 1a; assay type: cell-based; settings: Hepatitis C virus, Huh-7, 72 h, 3 days incubation
How it was run: as §1

[3] = HCV genotype 1b replicon luciferase assay, range class, read-out: LE_1b (EC50, range)
[4] = HCV genotype 1a replicon luciferase assay, range class, read-out: LE_1a (EC50, range)
[5] = HCV genotype 1b replicon luciferase, read-out: LE_1b (EC50, range)
[6] = HCV genotype 1a replicon luciferase, read-out: LE_1a (EC50, range)
[7] = GETYPE1B, HCV genotype 1b replicon luciferase, read-out: LE_1b (EC50, range)
[8] = GETYPE1A, HCV genotype 1a replicon luciferase, read-out: LE_1a (EC50, range)

Row | SMILES | EC50 [1, 3] | EC50 [2, 4] | EC50 [1, 5] | EC50 [2, 6] | also measured
1 | COc1ccc2c(O[C@@H]3C[C@H]4C(=O)N[C@]5(C(=O)NS(=O)(=O)C6(C)CC6)C[C@H]5/C=C\CC[C@H](C)C[C@@H](C)[C@H](NC(=O)OC(C)(C)C(F)(F)F)C(=O)N4C3)nc(N3CCCC3)cc2c1 [Compound 3118, 1,1,1-trifluoro-2-methylpropan-2-yl((2R,6S,7R,9S,13aS,14aR,16aS,Z)-2-((6-methoxy-3-(pyrrolidin-1-yl)isoquinolin-1-yl)oxy)-7,9-dimethyl-14a-(((1-methylcyclopropyl)sulfonyl)carbamoyl)-5,16-dioxo-1,2,3,5,6,7,8,9,10,11,13a,14,14a,15,16,16a-hexadecahydrocyclopropa[e]pyrrolo[1,2-a][1,4]diazacyclopentadecin-6-yl)carbamate] | 4.82 to 103 nM | 4.82 to 103 nM | – | – | –
2 | COc1ccc2c(O[C@@H]3C[C@H]4C(=O)N[C@]5(C(=O)NS(=O)(=O)C6(F)CC6)C[C@H]5/C=C\CC[C@@H](C)C[C@@H](C)[C@H](NC(=O)OCC5(C)CC5)C(=O)N4C3)nccc2c1 [Compound 4036] | – | – | < 5.46 nM | < 5.46 nM | –
3 | C[C@@H]1CC/C=C\[C@@H]2C[C@@]2(C(=O)NS(=O)(=O)C2(C)CC2)NC(=O)[C@@H]2C[C@@H](Oc3ncc(OCC(F)F)c4ccccc34)CN2C(=O)[C@@H](NC(=O)O[C@H](C)C(F)(F)F)[C@H](C)C1 [Compound 1036, (R)-1,1,1-trifluoropropan-2-yl ((2R,6S,7R,9R,13aS,14aR,16aS,Z)-2-((4-(2,2-difluoroethoxyl)isoquinolin-1-yl)oxy)-7,9-dimethyl-14a-(((1-methylcyclopropyl)sulfonyl)carbamoyl)-5,16-dioxo-1,2,3,5,6,7,8,9,10,11,13a,14,14a,15,16,16a-hexadecahydrocyclopropa[e]pyrrolo[1,2-a][1,4]diazacyclopentadecin-6-yl)carbamate] | < 5.46 nM | < 5.46 nM | – | – | –
4 | COCCOc1cc2c(Cl)cccc2c(O[C@@H]2C[C@H]3C(=O)N[C@]4(C(=O)NS(=O)(=O)C5(C)CC5)C[C@H]4/C=C\CC[C@H](C)C[C@@H](C)[C@H](NC(=O)OC(C)(C)C(F)(F)F)C(=O)N3C2)n1 [Compound 1113, 1,1,1-trifluoro-2-methylpropan-2-yl((2R,6S,7R,9S,13aS,14aR,16aS,Z)-2-((5-chloro-3-(2-methoxyethoxyl)isoquinolin-1-yl)oxy)-7,9-dimethyl-14a-(((1-methylcyclopropyl)sulfonyl)carbamoyl)-5,16-dioxo-1,2,3,5,6,7,8,9,10,11,13a,14,14a,15,16,16a-hexadecahydrocyclopropa[e]pyrrolo[1,2-a][1,4]diazacyclopentadecin-6-yl)carbamate] | < 5.46 nM | < 5.46 nM | – | – | –
5 | CC[C@@H]1C[C@H](C)CC/C=C\[C@@H]2C[C@@]2(C(=O)NS(=O)(=O)C2CC2)NC(=O)[C@@H]2C[C@@H](Oc3ncc(C(N)=O)c4cc(OC)ccc34)CN2C(=O)[C@H]1NC(=O)OC(C)(C)C(F)(F)F [Compound 4345] | – | – | – | – | EC50 [1, 7]: 35 to 620 nM; EC50 [2, 8]: 5.01 to 35 nM
6 | CC[C@@H]1C[C@H](C)CC/C=C\[C@@H]2C[C@@]2(C(=O)NS(=O)(=O)C2(C)CC2)NC(=O)[C@@H]2C[C@@H](Oc3nccc4c5c(ccc34)OCCO5)CN2C(=O)[C@H]1NC(=O)OC(C)(C)C(C)(F)F [Compound 5332, 3,3-difluoro-2-methylbutan-2-yl((2R,6S,7R,9R,13aS,14aR,16aS,Z)-2-((2,3-dihydro-[1,4]dioxino[2,3-f]isoquinolin-7-yl)oxy)-7-ethyl-9-methyl-14a-(((1-methylcyclopropyl)sulfonyl)carbamoyl)-5,16-dioxo-1,2,3,5,6,7,8,9,10,11,13a,14,14a,15,16,16a-hexadecahydrocyclopropa[e]pyrrolo[1,2-a][1,4]diazacyclopentadecin-6-yl)carbamate] | – | – | < 5.46 nM | < 5.46 nM | –
7 | CC[C@@H]1C[C@H](C)CC/C=C\[C@@H]2C[C@@]2(C(=O)NS(=O)(=O)C2CC2)NC(=O)[C@@H]2C[C@@H](Oc3nc4cc(OC)c(F)cc4nc3O)CN2C(=O)[C@H]1NC(=O)OC(C)(C)C [Compound 4265, tert-butyl ((2R,6S,7R,9R,13aS,14aR,16aS,Z)-14a-((cyclopropylsulfonyl)carbamoyl)-7-ethyl-2-((6-fluoro-3-hydroxy-7-methoxyquinoxalin-2-yl)oxy)-9-methyl-5,16-dioxo-1,2,3,5,6,7,8,9,10,11,13a,14,14a,15,16,16a-hexadecahydrocyclopropa[e]pyrrolo[1,2-a][1,4]diazacyclopentadecin-6-yl)carbamate] | – | – | 35 to 620 nM | 35 to 620 nM | EC50 ([1]; HCV genotype 1b replicon luciferase, read-out: LE_1b (EC50)): 475 nM; EC50 ([2]; HCV genotype 1a replicon luciferase, read-out: LE_1a (EC50)): 616 nM
8 | CC[C@@H]1C[C@H](C)CC/C=C\[C@@H]2C[C@@]2(C(=O)NS(=O)(=O)C2CC2)NC(=O)[C@@H]2C[C@@H](Oc3nccc4cc(OC)ccc34)CN2C(=O)[C@H]1NC(=O)OC(C)(C)C(F)(F)F [Compound 4006, 1,1,1-trifluoro-2-methylpropan-2-yl (2R,6S,7R,9R,13aS,14aR,16aS,Z)-14a-(cyclopropylsulfonylcarbamoyl)-7-ethyl-2-(6-methoxyisoquinolin-1-yloxy)-9-methyl-5,16-dioxo-1,2,3,5,6,7,8,9,10,11,13a,14,14a,15,16,16a-hexadecahydrocyclopropa[e]pyrrolo[1,2-a][1,4]diazacyclopentadecin-6-ylcarbamate] | – | – | < 5.46 nM | < 5.46 nM | –
9 | C[C@@H]1CC/C=C\[C@@H]2C[C@@]2(C(=O)NS(=O)(=O)C2(C)CC2)NC(=O)[C@@H]2C[C@@H](Oc3nc4c(c5ccccc35)OCCC4)CN2C(=O)[C@@H](NC(=O)OC(C)(C)C(F)(F)F)[C@H](C)C1 [Compound 6022, 1,1,1-trifluoro-2-methylpropan-2-yl((2R,6S,7R,9R,13aS,14aR,16aS,Z)-2-((3,4-dihydro-2H-pyrano[3,2-c]isoquinolin-6-yl)oxy)-7,9-dimethyl-14a-(((1-methylcyclopropyl)sulfonyl)carbamoyl)-5,16-dioxo-1,2,3,5,6,7,8,9,10,11,13a,14,14a,15,16,16a-hexadecahydrocyclopropa[e]pyrrolo[1,2-a][1,4]diazacyclopentadecin-6-yl)carbamate] | – | – | < 5.46 nM | < 5.46 nM | –
10 | COc1ccc2c(O[C@@H]3C[C@H]4C(=O)N[C@]5(C(=O)NS(=O)(=O)C6(CF)CC6)C[C@H]5/C=C\CC[C@@H](C)C[C@@H](C)[C@H](NC(=O)O[C@H](C)C(F)(F)F)C(=O)N4C3)nc(N(C)C)cc2c1 [Compound 3128, (R)-1,1,1-trifluoropropan-2-yl((2R,6S,7R,9R,13aS,14aR,16aS,Z)-2-((3-(dimethylamino)-6-methoxyisoquinolin-1-yl)oxy)-14a-(((1-(fluoromethyl)cyclopropyl)sulfonyl)carbamoyl)-7,9-dimethyl-5,16-dioxo-1,2,3,5,6,7,8,9,10,11,13a,14,14a,15,16,16a-hexadecahydrocyclopropa[e]pyrrolo[1,2-a][1,4]diazacyclopentadecin-6-yl)carbamate] | < 5.46 nM | 4.82 to 103 nM | – | – | –
11 | CC[C@@H]1C[C@H](C)CC/C=C\[C@@H]2C[C@@]2(C(=O)NS(=O)(=O)C2(C)CC2)NC(=O)[C@@H]2C[C@@H](Oc3ncc(OC)c4ccc(Cl)cc34)CN2C(=O)[C@H]1NC(=O)OC(C)(C)C(F)(F)F [Compound 4188] | – | – | – | – | EC50 [1, 7]: < 5.46 nM; EC50 [2, 8]: < 5.46 nM
